# Source: patent publication US11672803B2, “Use of inhibitors of Brutons tyrosine kinase (Btk)” (priority 2010, dated 2023)
# Key:
# individuals with DLBCL = experiment: Absolute lymphocyte count vs cycle day in individuals with DLBCL; assay type: in vivo, human; conditions: PD individuals, FIG. 11
# Method: Patient 38011 was treated on schedule of 4 weeks on treatment followed by one week off. Thus, day 1 of each cycle follows one week off drug for this patient. Patients 38008 and 324001 were treated with continuous daily doses.
# All Patients were treated on schedule of 4 weeks on treatment followed by one week off. Thus, day 1 of each cycle follows one week off drug for these patients. […] Patient 32002 received only one cycle of treatment.
# DoHH2 cells = experiment: Alamar blue assay in DoHH2 cells; assay type: cell-based; conditions: DLBCL cell line from a transformed follicular lymphoma patient
# Description: DOHH2 is a DLBCL (diffuse large B-cell lymphoma) cell line, from a transformed follicular lymphoma patient.
# Assay was an alamar blue assay.
# [1] = test system: individuals with mantle cell lymphoma; experiment: Absolute lymphocyte count vs cycle day in individuals with mantle cell lymphoma; assay type: in vivo, human
# Method: Patients 32006, 38003, and 38004 were treated on schedule of 4 weeks on treatment followed by one week off. Thus, day 1 of each cycle follows one week off drug for these patients. The other patients were treated with continuous daily dosing.
# [2] = test system: individuals with follicular lymphoma; experiment: Absolute lymphocyte count / B cell mobilization vs cycle day in individuals with follicular lymphoma; assay type: in vivo, human
# Method: All Patients (except Pt 32009) were treated on schedule of 4 weeks on treatment followed by one week off. Thus, day 1 of each cycle follows one week off drug for these patients.
# All Patients were treated on schedule of 4 weeks on treatment followed by one week off. Thus, day 1 of each cycle follows one week off drug for these patients.
# All Patients except 38010 were treated on schedule of 4 weeks on treatment followed by one week off. Thus, day 1 of each cycle follows one week off drug for these patients.
compound,measurement,setting,value
"C=CC(=O)N1CCC[C@@H](n2nc(-c3ccc(Oc4ccccc4)cc3)c3c(N)ncnc32)C1 [Btk inhibitor, (R)-1-(3-(4-amino-3-(4-phenoxyphenyl)-1H-pyrazolo[3,4-d]pyrimidin-1-yl)piperidin-1-yl)prop-2-en-1-one]",Lymphocyte mobilization (ALC),individuals with DLBCL,lack of mobilization for 3 of the 4 patients
same,Sensitivity of DOHH2 cell line,DoHH2 cells,moderately sensitive
same,Lymphocyte mobilization (ALC),"[1]; patient with initial PD (32014), FIG. 12",failed to show mobilization
same,Lymphocyte mobilization (ALC),"[1]; responding patients, FIG. 13",all responding patients showed some degree of mobilization
same,B cell fraction change by cycle,"[2]; Patient 32007, Cohort 4, follicular lymphoma grade 3, regressed from SD to CR, FIG. 14",characteristic cyclic increases
same,Lymphocyte mobilization (ALC),"[2]; follicular lymphoma, PD individuals, FIG. 9",lack of mobilization
same,Absolute lymphocyte count (ALC) change by cycle,"[2]; follicular lymphoma, complete or partial response (CR/PR), 4 weeks on, 1 week off, FIG. 7",increases of ALC during most cycles of most patients
